Results published in the supplement of paper PMC10949913.

Key:
Conditions in all cases: 48 h
NCI-H295R [1] = assay: AC50 viability; higher = less potent
Summary of the method: (§1)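 For each of three adrenocortical carcinoma cell lines, 500–1,000 cells/well were placed in 5 µL medium in 1,536-well plates. A 23 nL volume of every library compound was added at 11 concentrations. Following 48 h, a 15-minute room-temperature CellTiter-Glo step preceded luminescence reading, with signals normalised per plate to vehicle and empty-well controls. AC50 and area under the curve were derived by curve fitting, retaining only inhibitory or non-responding curve classes.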

CU-ACC1 [2] = assay: AC50 viability; higher = less potent
Summary of the method: as §1

NCI-H295R [3] = assay: area under concentration-response curve (viability) (AUC (a.u.)); higher = less active
Summary of the method: as §1

CU-ACC1 [4] = assay: as above
Summary of the method: as §1

CU-ACC2 = assay: as above
Summary of the method: as §1

Compound | AC50 viability (NCI-H295R [1]) | AC50 viability (CU-ACC1 [2]) | area under concentration-response curve (NCI-H295R [3]) | area under concentration-response curve (CU-ACC1 [4]) | area under concentration-response curve (CU-ACC2)
COc1ccc(Cl)c(Nc2ncnc3cc(OCC4CCN(C)CC4)c(OC)cc23)c1 | 26.3 µM | 23.5 µM | 581 | 513 | –
CCNc1cc(NC2CCC(O)CC2)nc(Nc2ccc3c(ccn3Cc3ccccc3)c2)n1 (stereo not given) | 1.18 µM | 0.0235 µM | 156 | 149 | –
CN1CCN(CCCN2c3ccccc3Sc3ccc(C(F)(F)F)cc32)CC1 | 18.6 µM | 29.5 µM | 480 | 441 | –
COc1cc(C(=O)NC2CCN(C)CC2)ccc1Nc1ncc2c(n1)N(C1CCCC1)CCC(=O)N2C(C)C | 23.5 µM | 26.3 µM | 538 | 504 | –
O=C(C(c1ccccc1)c1ccccc1)N1CCN(CC(O)COc2cccc3ncccc23)CC1 (stereo not given) | 16.6 µM | 23.5 µM | 524 | 467 | –
CCN1CCN(Cc2ccc(NC(=O)c3ccc(C)c(/C=C/c4cnc5[nH]ccc5c4OC)c3)cc2C(F)(F)F)CC1 | 7.42 µM | 9.34 µM | 471 | 461 | –
CC(C)C(=O)Nc1ncc(-c2cc(C(F)F)nn2-c2c(Cl)cccc2Cl)s1 | 23.5 µM | 23.5 µM | 507 | 472 | –
Cc1cccc(-c2n[nH]cc2-c2ccc(F)c(-c3cnn(CCO)c3)c2)n1 | 13.2 µM | 5.25 µM | 308 | 284 | –
[2H]C([2H])(Nc1nc(-c2ccccc2C([2H])(C([2H])([2H])[2H])C([2H])([2H])[2H])ncc1C)c1ccc(-n2ccnn2)cc1 | 9.34 µM | 16.6 µM | 531 | 469 | –
Cc1[nH]c(/C=C2\C(=O)Nc3ccc([S+](=O)([O-])N(C)c4cccc(Cl)c4)cc32)c(C)c1C(=O)N1CCN(C)CC1 | 33.2 µM | 20.9 µM | 491 | 397 | –
NC(=O)c1ccc2nc(-c3ccc(C4(N)CCC4)cc3)c(-c3ccccc3)n2n1 | 16.6 µM | 18.6 µM | 465 | 483 | –
CCC(CC)C(c1ccc(Nc2nc3ccccc3s2)cc1)n1cncn1 (stereo not given) | 20.9 µM | 29.5 µM | 474 | 451 | –
C/C(=C\C(=O)Nc1ccccc1C(=O)O)c1ccc2ccccc2c1 | 18.6 µM | 7.42 µM | 449 | 451 | –
Cc1c(CN2CCN(C(=O)[C@H](C)O)CC2)sc2c(N3CCOCC3)nc(-c3cnc(N)nc3)nc12 | 2.09 µM | 0.0295 µM | 210 | 215 | –
C[S+](=O)([O-])CCNCc1ccc(-c2ccc3ncnc(Nc4ccc(OCc5cccc(F)c5)c(Cl)c4)c3c2)o1 | 20.9 µM | 23.5 µM | 456 | 420 | –
CC(=O)C\1=C(/C)C2=CN=C(NC3=CC=C(C=N3)N4CCNCC4)N=C2N(C5CCCC5)C1=O | 26.3 µM | 16.6 µM | 487 | 461 | –
O=[N+]([O-])c1ccc(O)c2ncccc12 | 11.8 µM | 11.8 µM | 483 | 482 | –
Cc1ccc(NC(=O)c2ccc(CN3CCN(C)CC3)cc2)cc1Nc1nccc(-c2cccnc2)n1 | 20.9 µM | 23.5 µM | 469 | 484 | –
CN1CCN(c2ncc(-c3cc(Cl)cc(Cl)c3Cl)c(N)n2)CC1 | 11.8 µM | 14.8 µM | 487 | 405 | –
C[S+](=O)([O-])c1ccc([C@@H](CC2CCCC2)C(=O)Nc2nccs2)cc1 | 16.6 µM | 18.6 µM | 393 | 379 | –
Nc1ccc(F)cc1NC(=O)c1ccc(CNC(=O)/C=C/c2cccnc2)cc1 | 8.33 µM | 9.34 µM | 433 | 341 | –
CC(C)CC(=O)Nc1n[nH]c2c1CN(C(=O)C1CCN(C)CC1)C2(C)C | – | 16.6 µM | 562 | 514 | 574

Compound | AC50 viability (NCI-H295R [1]) | AC50 viability (CU-ACC1 [2]) | area under concentration-response curve (NCI-H295R [3]) | area under concentration-response curve (CU-ACC1 [4]) | area under concentration-response curve (CU-ACC2)
CCCC\1=C(/CNC(=O)C2=CC(=CC3=C2C=N[N]3C(C)C)C4=CC(=NC=C4)N5CCN(C)CC5)C(=O)NC(=C1)\C | 18.6 µM | 18.6 µM | 501 | 478 | –
CNC(=O)c1cc(Oc2ccc3nc(N[C@@H]4CCCC[C@H]4O)sc3c2)ccn1 | – | 20.9 µM | 548 | 481 | 583
COc1ccc(Cc2nccc3cc(OC)c(OC)cc23)cc1OC | – | 6.61 µM | 533 | 384 | 583
Cc1ccc(N[S+](=O)([O-])c2cccc(C#N)c2)c2[nH]cc(C#N)c12 | – | 0.833 µM | 489 | 451 | 576
O=C(NCCCNc1nc(Nc2ccc(N3CCOCC3)cc2)ncc1C1CC1)C1CCC1 | 14.8 µM | 2.63 µM | 460 | 379 | –
CCN(CC)CCCC[C@H](NC(=O)[C@H](CC(C)C)NC(=O)[C@H](C)NC(=O)[C@H](Cc1ccccc1)NC(=O)c1ccc(C(C)(C)C)cc1)C(=O)N[C@@H](CO)C(=O)OC | – | 0.0132 µM | 421 | 446 | 424
NC(=O)c1cccc(-c2cc(Nc3ccc(OC(F)(F)F)cc3)ncn2)c1 | 20.9 µM | 16.6 µM | 538 | 488 | –
CC(C)Oc1ccc(C(=O)N[C@H](CNC(=O)CN(C)C)Cc2ccc(-c3cn4cccc([C@H](C)O)c4n3)cc2)cc1Cl | 13.2 µM | 16.6 µM | 427 | 424 | –
Cc1c(C(=O)N2CCOc3ccc(-c4ccc(N)nc4)cc3C2)ccc([S+](C)(=O)[O-])c1F | – | 8.33 µM | 473 | 428 | 516
O=C(Nc1cccnn1)N1CCC(=Cc2cccc(Oc3ccc(C(F)(F)F)cn3)c2)CC1 | 20.9 µM | 20.9 µM | 445 | 361 | –
Fc1ccc(CNc2ncnc3ccc(F)cc23)cc1 | – | 2.35 µM | 509 | 415 | 577
COC(=O)C1=C(C)NC(C)=C(C(=O)OCCN2CCN(C(c3ccccc3)c3ccccc3)CC2)C1c1cccc([N+](=O)[O-])c1.Cl.Cl (stereo not given) | 11.8 µM | 20.9 µM | 497 | 462 | –
ClC1=CC=C(CCCOC/2=N/NC(=O)C(=C2NCC3=CN=CC=C3)/Br)C=C1 | 10.5 µM | 3.72 µM | 457 | 358 | –
FC1=CC=C(SC/2=N/N3\C=N/C(=O)/C(=C3/C=C2)C4=C(Cl)C=CC=C4Cl)C(=C1)F | – | 0.0372 µM | 541 | 453 | 562
COc1cc(N2CCN(C)CC2)ccc1Nc1ncc2c(n1)N(C)c1ccccc1C(=O)N2 | 23.5 µM | 16.6 µM | 492 | 479 | –
CC(C)(C)OC(=O)Nc1ccc(-c2cc(C(=O)NCCCCCCC(=O)NO)no2)cc1 | – | 14.8 µM | 564 | 479 | 598
CC(C)(C)NC(=O)Nc1cccc(Nc2ncc(F)c(NC(C)(C)CO)n2)c1 | – | 23.5 µM | 571 | 525 | 652
Cn1c(=O)c2c(ncn2CC2OCCO2)n(C)c1=O | – | 0.00235 µM | 452 | 294 | 375
COc1ccc2cc3[n+](cc2c1OC)CCc1cc2c(cc1-3)OCO2 | – | 4.68 µM | 557 | 444 | 573
CN[C@@H]1C[C@H]2O[C@@](C)([C@@H]1OC)n1c3ccccc3c3c4c(c5c6ccccc6n2c5c31)C(=O)NC4 | – | 0.833 µM | 346 | 385 | 359
COc1ccc([S+](=O)([O-])Nc2cccnc2Nc2ccc(O)cc2)cc1 | – | 4.68 µM | 498 | 479 | 569
CC[C@H](C)C(=O)O[C@H]1CC\C=C2\C=C/[C@H](C)[C@H](CC[C@@H]3C[C@@H](O)CC(=O)O3)[C@@H]12 | – | 14.8 µM | 484 | 426 | 415

Compound | AC50 viability (NCI-H295R [1]) | AC50 viability (CU-ACC1 [2]) | area under concentration-response curve (NCI-H295R [3]) | area under concentration-response curve (CU-ACC1 [4]) | area under concentration-response curve (CU-ACC2)
Cc1cc(OCCC[S+](C)(=O)[O-])cc(C)c1-c1cccc(COc2ccc3c(c2)OC[C@H]3CC(=O)O)c1 | – | 20.9 µM | 491 | 425 | 528
Nc1nccc(-c2c(-c3ccc(F)cc3)ncn2C2CCCCC2)n1 | – | 14.8 µM | 556 | 480 | 621
CC1=C(C)C\2=C(S1)[N]3C(=NN=C3C(CC(=O)NC4=CC=C(O)C=C4)\N=C2C5=CC=C(Cl)C=C5)C (stereo not given) | – | 2.63 µM | 527 | 458 | 549
CCNC(=O)c1noc(-c2cc(C(C)C)c(O)cc2O)c1-c1ccc(CN2CCOCC2)cc1 | – | 0.0118 µM | 198 | 226 | 114
COc1ccc(Cn2ccc3ccc(C(=O)NO)cc32)cc1 | – | 23.5 µM | 582 | 524 | 625
O=C1c2cccc(O)c2C(=O)c2c(O)cc(CO)cc21 | – | 10.5 µM | 575 | 508 | 656
S=C(NCc1ccc2c(c1)OCO2)N1CCN(c2ncnc3c2oc2ccccc23)CC1 | – | 2.95 µM | 483 | 383 | 567
Cc1cc(-c2ncc(CC(=O)Nc3ccc(-c4cnccn4)cn3)cc2C)ccn1 | – | 7.42 µM | 500 | 429 | 597
O=C(O)c1nn(Cc2ccc(Cl)cc2Cl)c2ccccc12 | – | 1.66 µM | 440 | 442 | 464
FC1=C(C=C(C/C2=N/NC(=O)C3=C2C=CC=C3)C=C1)C(=O)N4CCN(CC4)C(=O)C5CC5 | – | 10.5 µM | 434 | 456 | 464
Cc1c[nH]c(/C=C2\C(=O)Nc3ccccc32)c1CCC(=O)O | – | 0.0105 µM | 381 | 428 | 353
CC(=O)[C@]1(N)Cc2c(O)c3c(c(O)c2[C@@H](O[C@H]2C[C@H](O)[C@H](O)CO2)C1)C(=O)c1ccccc1C3=O | – | 16.6 µM | 534 | 474 | 487
COC(=O)N1CCN(Cc2cccc(NC(=O)Nc3ccc(C)nc3)c2F)CC1 | – | 74.2 µM | 573 | 486 | 601
CN(C)CCOc1cc(-c2cn[nH]c2)ccc1NC(=O)C1COc2ccccc2O1 (stereo not given) | – | 20.9 µM | 452 | 390 | 426
Cc1cccc(CC(=O)N2CCc3c2ccc(-c2cn(C)c4ncnc(N)c24)c3F)n1 | – | 4.68 µM | 551 | 487 | 644
CCC(=O)N[C@H]1CC[C@H](C(=O)N(C)c2ccc(-c3nc4ccccc4o3)cc2)C1 | – | 23.5 µM | 555 | 548 | 661
CC(C)c1noc(N2CCC(COc3ccc(-c4ccc([S+](C)(=O)[O-])cc4)nc3)CC2)n1 | – | 8.33 µM | 496 | 419 | 583
O=C(O)c1ccc(O)c2ncccc12 | – | 33.2 µM | 447 | 458 | 491
N=C(N)Nc1ccc(C(=O)Oc2ccc3cc(C(=N)N)ccc3c2)cc1 | – | 33.2 µM | 532 | 460 | 585
C[C@@H]1CC[C@@]2(CC[C@]3(C)\C(=C/C[C@@H]4[C@@]5(C)CC[C@H](O)C(C)(C)[C@@H]5CC[C@@]34C)[C@@H]2[C@H]1C)C(O)=O | – | 9.34 µM | 419 | 402 | 441
Cc1[nH]c2ccc(F)cc2c1-c1nc2c3cccnc3c3ncccc3c2[nH]1 | – | 1.52 µM | 424 | 326 | 498
